No end group written: not given here.
Experiments:
[1] = test system: E6AP mRNA in HCT116 cells; experiment: siRNA AD-8724 delivery into HCT116 cells, inhibition of E6AP mRNA expression by bDNA assay; type: cell-based, human; conditions: siRNA AD-8724 250 nM, molar peptide/siRNA ratio 12.5:1
Protocol: All further experiments were carried out using HCT116 cells and inhibition of E6AP expression as readout.
HCT116-cells were obtained from the American Type Culture Collection (ATCC# CCL-247). They were cultured in McCoy's 5A medium (Biochrom AG, Berlin, Germany, Cat.# F1015) containing 10% fetal calf serum (FCS; Biochrom AG, Berlin, Germany, Cat.# S0115) and 2 mM L-Glutamin (Biochrom AG, Berlin, Germany, Cat.#: K0283) (standard growth medium). For incubation with peptide/siRNA, complexes, the medium was replaced by serum-free McCoy's 5A medium containing 2 mM L-Glutamin (serum free medium). After incubation with complexes for 4 h, McCoy's 5A medium containing 30% fetal calf serum and 2 mM L-Glutamin (triple FCS medium) was added to restore an overall 10% FCS in the medium.
The E6AP-specific siRNA denoted AD-8724 herein was used, having the following sequences: antisense strand: 5′-ucacauuccacguuaggugTsT-3′ (SEQ ID NO:51), sense strand 5′-caccuaacguggaaugugaTsT-3′; (SEQ ID NO:52; lower case letters: ribonucleotides; s: phosphorothioate backbone linkage). As a negative control, an siRNA specific for eGFP, denoted AD-5107 herein, was used, having the following sequences: antisense strand: 5′-aagucgugcugcuucauguggOMesuOMesc-3′ (SEQ ID NO:19), sense strand 5′-[…]-3′ (SEQ ID NO:18; lower case letters: ribonucleotides; subscript OMe: 2′-O-methyl-ribonucleotide; s: phosphorothioate backbone linkage). In addition to the non-specific control siRNA AD-5107, mock transfected cells treated with standard growth medium only were used as negative controls. As a positive control, AD-8724 was transfected into the cells using Lipofectamine2000™ (Invitrogen, Karlsruhe, Germany, Cat. No. 11668-019). As a further control, AD-5107 was transfected into cells using Lipofectamine2000™. All assays were performed in quadruplicates.
SiRNA/peptide complexes were prepared by mixing a solution of the siRNA in deionized water with a solution of the peptide in deionized water at the appropriate concentrations to give the desired ratio of siRNA/peptide at the desired concentration of the complex. The mixture was incubated at room temperature for 30 min and kept at 4° C. until use, and used within 24 h.
For transfections with siRNA/peptide complexes, 1.5×10^5 HCT116-cells per well in 150 μl standard growth medium were seeded into polystyrene 96 well plates and grown for 24 h at 37° C. in an atmosphere containing 5% CO2. The medium was removed by aspiration, and 90 μl serum-free medium and 10 μl of siRNA/peptide complex solution were added. Cells were incubated for 4 h at 37° C./5% CO2, 50 μl triple FCS medium were added, and the cells incubated for another 20 h under identical conditions. Subsequently, E6AP mRNA content was determined as described below.
For Lipofectamine2000™ transfections, 0.5 μl Lipofectamine2000™ were mixed with 12 μl OptiMem™ (Invitrogen, Karlsruhe, Germany, Cat. No. 11058-021) and incubated for 15 min. 1 μl of a 5 μM solution of the respective siRNA in PBS (Biochrom AG, Berlin, Germany, Cat-No: L182-05) were added to 11.5 μl OptiMeM™, mixed with the Lipofectamine2000™/OptiMem™ solution, and incubated for further 15 min. 1.5×10^5 HCT116-cells per well in 150 μl standard growth medium were grown for 24 h as described above, the growth medium removed from the cells by aspiration, and 75 μl fresh standard growth medium and the 25 μl of the siRNA/Lipofectamine2000™ mix were added to the well, to give a final siRNA concentration of 50 nM. The cells were incubated for 24 h at 37° C./5% CO2 and E6AP mRNA concentration determined.
The QuantiGene™ bDNA-kit from Panomics, Inc., Fremont, USA, was used according to manufacturer's instructions. Briefly, cells were lysed by adding 50 μl of Lysis Mixture (from QuantiGene bDNA-kit) to each well and incubation at 53° C. for 1 h. […]

eGFP-mRNA = experiment: Influence of peptide/siRNA ratio on siRNA activity in HCT116 cells; type: cell-based; conditions: 250 nM siRNA
Protocol: The optimal ratio of (peptide):(anionic substance) for complex formation, was determined in section 3 above to lie in the range of 8:1 to 13:1 by titrating a fixed concentration of the anionic substance with increasing amounts of the peptide, and monitoring complex formation by electrophoresis of the mixture. To further validate and possibly narrow down the optimum ratio of peptide/anionic substance, an assay with a functional readout was performed. HCT116 cells were incubated with siRNA complexes as described above at concentrations such that the amount of siRNA in the incubation mixture corresponds to a 250 nM concentration of the siRNA, and the peptide/siRNA ratio was 8:1, 10:1, 12:1, or 14:1.

cell viability = experiment: CytoTox ONE cell viability assay; type: cell-based; conditions: 2.5 μM peptide
Protocol: Delivery of siRNAs was tested in 7 different cell lines we obtained from the American Type Culture Collection, ATCC, via LCG Promochem GmbH, Wesel, Germany (PC12, ATTC# CRL-1721; HCT116, ATCC# CCL-247; C33A, ATCC# HTB-31; H441, ATCC# HTB-174; NMuLi, ATCC# CRL-1638; HepG2, ATCC# HB-8065; HeLa S3, ATCC# CCL2.2) and in the cell line KB-BCL2-GFP, as described in co-pending U.S. Ser. No. 10/941,663. Target mRNA quantification was performed using the QuantiGene™ bDNA-kit from Panomics, Inc., Fremont, USA, according to the manufacturers instructions, and essentially as described below for H441 cells. Genes constitutively expressed in the various cell lines were chosen as targets and results normalized to GAPDH expression. siRNA concentration was 250 nM, the concentration of the peptide was chosen as given by the molar ratio peptide/siRNA shown in Table 1. Cytotoxicity of peptides was evaluated employing the CytoTox-ONE™ assay (Promega GmbH, Mannheim, Germany).
Potential cytotoxic effects as mediator of inhibition were ruled out by determining cell viability in the presence of 2.5 μM of ppTG20, AP-0, AP-1, AP-27, AP-30, AP32 and AP-34 using the CytoTox ONE™ assay (Promega GmbH, Mannheim, Germany).

GAFRAAARLLRSLWRALLRA [AP-24]
remaining E6AP mRNA (in % of mock) [1]: 91 ± 16%

GAFRAAARLLRSLWRLLLRA [AP-23]
remaining E6AP mRNA (in % of mock) [1]: 82 ± 6%

GAFRAALRLLRSLWRLLLRA [AP-21]
remaining E6AP mRNA (in % of mock) [1]: 53 ± 32%

GAYRAALRLLRSLWRLLSRA [AP-26]
remaining E6AP mRNA (in % of mock) [1]: 78 ± 6%

GLFRALARALRSLWRALARA [AP-25]
remaining E6AP mRNA (in % of mock) [1]: 83 ± 5%

GLFRALLRLLRRLWRLLLRA [AP-3]
remaining E6AP mRNA (in % of mock) [1]: 43 ± 7% | Remaining eGFP-mRNA in % of mock-transfected controls (eGFP-mRNA; peptide/siRNA ratio 8:1): 39 ± 10% | Remaining eGFP-mRNA in % of mock-transfected controls (eGFP-mRNA; peptide/siRNA ratio 10:1): 32 ± 4% | Remaining eGFP-mRNA in % of mock-transfected controls (eGFP-mRNA; peptide/siRNA ratio 12:1): 40 ± 5% | Remaining eGFP-mRNA in % of mock-transfected controls (eGFP-mRNA; peptide/siRNA ratio 14:1): 40 ± 8%

GLFRALLRLLRSLWRALARA [AP-22]
remaining E6AP mRNA (in % of mock) [1]: 32 ± 14%

GLFRALLRLLRSLWRLLLRA [ppTG20, reference compound]
cell viability (cell viability): None of these peptides led to a significant alteration of cell viability

GLFRALLRLLRSLWRLLLRAHHHHH [AP-0]
cell viability (cell viability): None of these peptides led to a significant alteration of cell viability

GLFRALLRLLRSLWRLLRRA [AP-2]
remaining E6AP mRNA (in % of mock) [1]: 58 ± 7% | Remaining eGFP-mRNA in % of mock-transfected controls (eGFP-mRNA; peptide/siRNA ratio 8:1): 54 ± 6% | Remaining eGFP-mRNA in % of mock-transfected controls (eGFP-mRNA; peptide/siRNA ratio 10:1): 35 ± 15% | Remaining eGFP-mRNA in % of mock-transfected controls (eGFP-mRNA; peptide/siRNA ratio 12:1): 32 ± 11% | Remaining eGFP-mRNA in % of mock-transfected controls (eGFP-mRNA; peptide/siRNA ratio 14:1): 36 ± 7%

GLFRALLRLLRSLWRLLSRA [AP-16]
remaining E6AP mRNA (in % of mock) [1]: 43 ± 13%

GLFRALLRLLRSLWRSLLRA [AP-17]
remaining E6AP mRNA (in % of mock) [1]: 37 ± 9%

GLFRALLRLLRSLWRSLSRA [AP-18]
remaining E6AP mRNA (in % of mock) [1]: 49 ± 3%

GLFRALRRLLRSLWRLLRRA [AP-5]
remaining E6AP mRNA (in % of mock) [1]: 108 ± 47%

GLYRALLRLLRSLWRLLLRA [AP-19]
remaining E6AP mRNA (in % of mock) [1]: 27 ± 9%

GLYRALLRLLRSLWRLLSRA [AP-20]
remaining E6AP mRNA (in % of mock) [1]: 45 ± 6%

— patent publication US7906484B2, “Complex for transferring an anionic substance into a cell” (Alnylam Pharmaceuticals, Inc., priority 2006, dated 2011)
